The source of these data is patent publication US8791267B2, “Biaryl PDE4 inhibitors for treating inflammatory, cardiovascular and CNS disorders” (Decode Genetics EHF, priority 2007, dated 2014).

One assay concerns the target PDE4 (Homo sapiens, UniProt Q08499). In words: In-vitro assay for PDE4 enzymes, real-time enzyme-coupled spectrophotometric assay (Table 9). The note with it: human PDE4D; activity class, Table 9; read-out: hPDE4D. It is filed as biochemical.
A further assay has as its target PDE4B (Homo sapiens, UniProt Q07343). In words: In-vitro assay for PDE4 enzymes, real-time enzyme-coupled spectrophotometric assay, PDE4B Activity (Table 10). In kind it is biochemical. The note with it: human PDE4B (hPDE4B), enzyme-coupled spectrophotometric assay; read-out: PDE4B Activity, hPDE4B.

Counter-ions that a name gives are not always drawn.

PDE4, sequence (Q08499 whole entry): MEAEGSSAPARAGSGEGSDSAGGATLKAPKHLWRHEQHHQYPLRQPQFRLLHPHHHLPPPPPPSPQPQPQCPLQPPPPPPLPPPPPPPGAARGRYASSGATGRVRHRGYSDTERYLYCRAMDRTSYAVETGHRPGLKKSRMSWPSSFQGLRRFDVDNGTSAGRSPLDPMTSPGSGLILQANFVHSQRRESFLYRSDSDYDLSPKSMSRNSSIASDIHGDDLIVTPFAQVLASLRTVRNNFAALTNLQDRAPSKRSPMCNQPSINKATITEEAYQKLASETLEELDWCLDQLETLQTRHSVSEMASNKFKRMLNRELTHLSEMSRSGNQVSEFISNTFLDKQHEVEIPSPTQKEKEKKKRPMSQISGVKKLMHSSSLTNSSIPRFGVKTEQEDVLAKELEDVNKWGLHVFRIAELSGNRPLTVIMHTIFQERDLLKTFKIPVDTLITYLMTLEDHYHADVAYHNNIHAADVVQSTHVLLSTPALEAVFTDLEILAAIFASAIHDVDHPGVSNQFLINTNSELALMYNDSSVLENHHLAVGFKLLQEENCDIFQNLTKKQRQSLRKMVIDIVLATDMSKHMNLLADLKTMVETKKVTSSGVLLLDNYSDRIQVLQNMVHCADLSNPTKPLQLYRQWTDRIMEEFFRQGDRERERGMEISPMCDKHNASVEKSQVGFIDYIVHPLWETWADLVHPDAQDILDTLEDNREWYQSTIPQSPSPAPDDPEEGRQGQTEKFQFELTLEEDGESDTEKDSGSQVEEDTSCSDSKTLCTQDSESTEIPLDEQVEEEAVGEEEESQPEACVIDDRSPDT
PDE4B, sequence (Q07343 whole entry): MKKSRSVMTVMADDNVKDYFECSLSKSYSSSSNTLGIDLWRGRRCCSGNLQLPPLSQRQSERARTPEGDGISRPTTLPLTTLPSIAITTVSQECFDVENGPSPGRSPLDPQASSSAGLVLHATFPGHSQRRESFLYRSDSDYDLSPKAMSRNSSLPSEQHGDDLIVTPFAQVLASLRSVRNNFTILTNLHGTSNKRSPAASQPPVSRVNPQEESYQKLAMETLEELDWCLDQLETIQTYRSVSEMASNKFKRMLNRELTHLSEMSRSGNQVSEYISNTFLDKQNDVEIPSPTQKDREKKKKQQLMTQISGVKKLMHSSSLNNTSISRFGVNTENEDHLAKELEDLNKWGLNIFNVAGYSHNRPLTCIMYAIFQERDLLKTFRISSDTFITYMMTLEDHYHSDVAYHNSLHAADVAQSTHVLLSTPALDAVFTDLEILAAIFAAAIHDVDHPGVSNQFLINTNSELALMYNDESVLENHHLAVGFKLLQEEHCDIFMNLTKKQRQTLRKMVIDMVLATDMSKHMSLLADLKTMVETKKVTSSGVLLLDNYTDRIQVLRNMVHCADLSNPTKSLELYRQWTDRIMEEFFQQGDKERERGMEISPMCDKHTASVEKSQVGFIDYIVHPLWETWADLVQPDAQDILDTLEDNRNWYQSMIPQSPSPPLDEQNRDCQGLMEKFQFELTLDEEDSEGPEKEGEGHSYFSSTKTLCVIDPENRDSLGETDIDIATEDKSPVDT

With `CNC(=O)NCc1ccc(Cc2ccc(OC)c(-c3cccc(Cl)c3)c2)cn1` [P-593, 1-[5-(3′-chloro-6-methoxy-biphenyl-3-ylmethyl)-pyridin-2-ylmethyl]-3-methyl-urea hydrochloride], the IC50 at PDE4 and on PDE4B was less than 5 µM in each case.

Take `COc1ccc(COc2ccc(NC(C)=O)cc2)c(F)c1-c1cccc(Cl)c1` [P-594]: the IC50 at PDE4 and at PDE4B was less than 5 µM throughout.

For `NCc1ccc(Cc2ccc(OC(F)F)c(-c3cccc(Cl)c3)c2)cn1` [P-596, C-[5-(3′-Chloro-6-difluoromethoxy-biphenyl-3-ylmethyl)-pyridin-2-yl]-methylamine], the IC50 on PDE4 and at PDE4B was less than 5 µM each time.

Consider `CCNC(=O)NCc1ccc(Cc2ccc(OC)c(-c3cccc(Cl)c3)c2)cn1` [P-597, 1-[5-(3′-chloro-6-methoxy-biphenyl-3-ylmethyl)-pyridin-2-ylmethyl]-3-ethyl-urea hydrochloride], for which the IC50 on PDE4 and on PDE4B was less than 5 µM throughout.

On to `CNC(=O)NCc1ccc(Cc2ccc(OC(F)F)c(-c3cccc(Cl)c3)c2)cn1` [P-598, 1-[5-(3′-Chloro-6-difluoromethoxy-biphenyl-3-ylmethyl)-pyridin-2-ylmethyl]-3-methyl-urea hydrochloride], for which the IC50 on PDE4 and at PDE4B was less than 5 µM in each case.

Take `COc1ccc(Cc2ccc(CO)nc2)c(F)c1-c1cccc(Cl)c1` [P-599, [5-(3′-Chloro-2-fluoro-6-methoxy-biphenyl-3-ylmethyl)-pyridin-2-yl]-methanol]: the IC50 on PDE4 and on PDE4B was less than 5 µM in each case.

On to `COc1ccc(Cc2ccc(C(C)(C)N)nc2)cc1-c1cccc(Cl)c1` [P-600, hydrochloride], for which the IC50 on PDE4 was less than 5 µM; on PDE4B, 21 to 40 µM.

With `COc1ccc(COc2ccnc(Cl)c2)cc1-c1cccc(Cl)c1` [P-603], the IC50 on PDE4 and at PDE4B was less than 5 µM in each case.

Turning to `COc1ccc(COc2ccnc(Cl)c2)c(F)c1-c1cccc(Cl)c1` [P-604], the IC50 on PDE4 and at PDE4B was less than 5 µM throughout.

On to `COc1ccc(Cc2ccc(C(C)(C)O)nc2)cc1-c1cccc(Cl)c1` [P-605, 2-[5-(3′-chloro-6-methoxy-biphenyl-3-ylmethyl)-pyridin-2-yl]-propan-2-ol HCl salt], for which the IC50 at PDE4 and on PDE4B was less than 5 µM throughout.

As to `COc1ccc(Cc2ccc(C(C)N)nc2)c(F)c1-c1cccc(Cl)c1` (stereo not drawn) [P-606, 1-[5-(3′-Chloro-2-fluoro-6-methoxy-biphenyl-3-ylmethyl)-pyridin-2-yl]-ethylamine], the IC50 on PDE4 and on PDE4B was less than 5 µM in each case.

`CC(C)(O)c1ccc(Cc2ccc(OC(F)F)c(-c3cccc(Cl)c3)c2)cn1` [P-610, 2-[5-(3′-Chloro-6-difluoromethoxy-biphenyl-3-ylmethyl)-pyridin-2-yl]-propan-2-ol hydrochloride]: the IC50 at PDE4 and on PDE4B was less than 5 µM throughout.

Turning to `Nc1ccc(Cc2ccc(OC(F)F)c(-c3cccc(Cl)c3)c2)cn1` [P-611, 5-(3′-Chloro-6-difluoromethoxy-biphenyl-3-ylmethyl)-pyridin-2-ylamine hydrochloride], the IC50 at PDE4 and at PDE4B was less than 5 µM in each case.

Turning to `COc1ccc(Cc2ccc(N3CCC[C@H]3C(N)=O)nc2)c(F)c1-c1cccc(Cl)c1` [P-612, (S)-1-[5-(3′-chloro-2-fluoro-6-methoxy-biphenyl-3-ylmethyl)-pyridin-2-yl]-pyrrolidine-2-carboxylic acid amide], the IC50 on PDE4 and on PDE4B was less than 5 µM each time.

As for `CCNC(=O)Nc1ncc(Cc2ccc(OC)c(-c3cccc(Cl)c3)c2F)cn1` [P-619], the IC50 at PDE4 and on PDE4B was less than 5 µM in each case.

Regarding `CC(=O)Nc1ccc(Cc2ccc(O)c(-c3cccc(Br)c3)c2F)cc1` [P-620], the IC50 is less than 5 µM at PDE4 and 21 to 40 µM at PDE4B.

As to `CN(CC(N)=O)c1ccc(Cc2ccc(OC(F)F)c(-c3cccc(Cl)c3)c2)cn1` [P-621, 2-{[5-(3′-Chloro-6-difluoromethoxy-biphenyl-3-ylmethyl)-pyridin-2-yl]-methyl-amino}-acetamide], the IC50 on PDE4 and at PDE4B was less than 5 µM each time.

Consider `COc1ccc(CN2CCNC(=O)C2)c(F)c1-c1cccc(Cl)c1` [P-623], for which the IC50 on PDE4 was less than 5 µM; on PDE4B it was 5 to 20 µM.
